How the values were obtained:
Format in all cases: functional, cell-based
[1] = Cytotoxicity against mouse C26 cells after 2 days by MTT assay; conditions: C26, 48 h
A549 = test: Cytotoxicity against human A549 cells after 2 days by MTT assay; conditions: A549, 48 h
MCF7 = test: Cytotoxicity against human MCF7 cells after 2 days by MTT assay; conditions: MCF7, 48 h
[2] = Cytotoxicity against mouse TRAMP-C1 cells after 2 days by MTT assay; conditions: TRAMP-C1, 48 h

| Structure (SMILES) | IC50 [1] | IC50 (A549) | IC50 (MCF7) | IC50 [2] |
| --- | --- | --- | --- | --- |
| O=C(O)CCC(=O)c1ccc(-c2ccccc2)cc1 [FENBUFEN] | > 100 µM | > 100 µM | > 50 µM | > 100 µM |
| CCCCC(CC)C(=O)NCCCCNC(=O)CCC(=O)c1ccc(-c2ccccc2)cc1 (stereo not given) | 13 µM | 17 µM | 1 µM | 18 µM |
| Cc1ccc(C)c(OCCCC(C)(C)C(=O)NCCCCNC(=O)CCC(=O)c2ccc(-c3ccccc3)cc2)c1 | 10 µM | 9 µM | 2 µM | 40 µM |
| NCCCCNC(=O)CCC(=O)c1ccc(-c2ccccc2)cc1 [FENBUFEN BUTANAMINE] |  | 100 µM | 87 µM |  |
| C=C(CC)C(=O)c1ccc(OCC(=O)NCCCCN)c(Cl)c1Cl |  | 18 µM | 8 µM |  |
| C=C(CC)C(=O)c1ccc(OCC(=O)NCCCCNC(=O)CCC(=O)c2ccc(-c3ccccc3)cc2)c(Cl)c1Cl | 35 µM | 19 µM | 5 µM | 80 µM |

From ChEMBL document CHEMBL1681694, “Solution-phase parallel synthesis and screening of anti-tumor activities from fenbufen and ethacrynic acid libraries” (Bioorg Med Chem Lett, 2011)
